Test results taken from patent publication US9409905B2, “Antibacterial compounds and methods for use” (PTC THERAPEUTICS, INC., priority 2011, dated 2016).
≈ marks a conversion by molar mass, not a printed value.

What was measured:
E. coli 25922 = experiment: Antibacterial activity, microbroth dilution MIC (Table 1); type: cell-based, Escherichia coli; settings: Escherichia coli; microbroth dilution; control Gram-negative E. coli 25922 strain; read-out: MIC, 25922
Procedure, shortened: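 MIC (μg/mL) is taken as the lowest concentration with no macroscopically visible growth. Strains tested by microbroth dilution: Gram-positive S. aureus 29213, control Gram-negative E. coli 25922, and super-sensitive E. coli BAS849.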

[1] = test system: Pseudomonas aeruginosa (P. aeruginosa) 27853; experiment: Antibacterial activity, MIC (Table 5); type: cell-based; settings: P. aeruginosa 27853, read-out: MIC, 27853
Procedure, shortened: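 Using a microbroth dilution format, the minimum inhibitory concentration was recorded as the lowest tested concentration that stopped visible bacterial growth, expressed in μg/mL.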

[2] = test system: Neisseria meningitidis (N. meningitidis) 13090; experiment: Antibacterial activity, MIC (Table 8); type: cell-based
Procedure, shortened: (§1)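 Activity was determined by microbroth dilution. MIC, in μg/mL, is the lowest drug concentration that prevents macroscopically visible growth under the test conditions.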

E. coli LZ3111 = experiment: Antibacterial activity, MIC, quinolone resistant strain (Table 2); type: cell-based; settings: Escherichia coli, LZ3111, read-out: MIC LZ3111
Procedure, shortened: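 Growth inhibition assessed by serial drug dilution in broth; endpoint was absence of macroscopically visible growth, reported as MIC, μg/mL.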

E. coli ELZ4000 = experiment: Antibacterial activity, MIC, multi-drug resistant clinical isolate (Table 3); type: cell-based; settings: Escherichia coli, ELZ4000, read-out: MIC ELZ4000
Procedure, shortened: (§2)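 Values derive from a microbroth dilution method, taking as MIC (μg/mL) the lowest tested concentration without macroscopically visible growth.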

E. coli ELZ4251 = experiment: as above; type: cell-based; settings: Escherichia coli
Procedure, shortened: as §2

[3] = test system: Staphylococcus aureus (S. aureus) 29213; experiment: Antibacterial activity, microbroth dilution MIC (Table 1); type: cell-based; settings: microbroth dilution, Gram-positive S. aureus 29213, read-out: MIC, 29213
Procedure, shortened: (§3)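 Values are MICs (μg/mL): the smallest drug amount at which macroscopically visible bacterial growth is absent under assay conditions, from a microdilution method in broth.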

[4] = test system: Escherichia coli (E. coli) BAS849; experiment: as above; type: cell-based; settings: microbroth dilution, super sensitive Gram-negative E. coli BAS849, read-out: MIC, BAS849
Procedure, shortened: as §3

A. baumannii MXX2240 = experiment: Antibacterial activity, MIC, resistant strain (Table 4); type: cell-based; settings: Acinetobacter baumannii, MXX2240; resistant A. baumannii MMX2240, multi-drug resistant clinical isolate; read-out: MIC, MMX2240
Procedure, shortened: (§4)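 Values are minimum inhibitory concentrations in μg/mL from broth microdilution, meaning no macroscopically visible growth at that concentration. Resistant MXX isolates are multi-drug resistant clinical strains.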

K. pneumoniae MXX1232 = experiment: as above; type: cell-based; settings: Klebsiella pneumoniae, MXX1232; resistant K. pneumoniae MMX1232, multi-drug resistant clinical isolate; read-out: MIC, MMX1232
Procedure, shortened: as §4

[5] = test system: Moraxella catarrhalis (M. catarrhalis) 25238; experiment: Antibacterial activity, MIC (Table 7); type: cell-based
Source text: The antibacterial activity from a microbroth dilution method may be presented as the minimum inhibitory concentration (MIC in μg/mL). The MIC value is the lowest concentration of drug which prevents macroscopically visible growth under test conditions.
Antibacterial activity of test compounds against the Gram-negative bacteria Haemophilus influenzae (H. influenzae) 49247 is shown in Table 6, Moraxella catarrhalis (M. catarrhalis) 25238 is shown in Table 7 and Neisseria meningitidis (N. meningitidis) 13090 is shown in Table 8.

[6] = test system: Acinetobacter baumannii (A. baumannii) BAA747; experiment: Antibacterial activity, MIC (Table 4); type: cell-based; settings: A. baumannii BAA747, read-out: MIC, BAA747
Procedure, shortened: as §4

[7] = test system: Klebsiella pneumoniae (K. pneumoniae) 35657; experiment: Antibacterial activity, MIC (Table 4); type: cell-based; settings: K. pneumoniae 35657, read-out: MIC, 35657
Procedure, shortened: as §4

[8] = test system: Haemophilus influenzae (H. influenzae) 49247; experiment: Antibacterial activity, MIC (Table 6); type: cell-based
Procedure, shortened: as §1

Row | Structure (SMILES) | MIC (E. coli 25922) | MIC [1] | MIC [2] | MIC (E. coli LZ3111) | MIC (E. coli ELZ4000) | MIC (E. coli ELZ4251) | MIC [3] | MIC [4] | MIC (A. baumannii MXX2240) | MIC (K. pneumoniae MXX1232) | MIC [5] | MIC [6] | MIC [7] | MIC [8]
1 | CCc1c(-c2ccc3c(c2)cc(CN2CCC2)n3C)[nH]c(=O)c(C(=O)O)c1O [Cpd 186, 6-(2-(azetidin-1-ylmethyl)-1-methyl-1H-indol-5-yl)-5-ethyl-4-hydroxy-2-oxo-1,2-dihydropyridine-3-carboxylic acid] | < 1 µg/mL | 3.5 to 12.5 µg/mL (≈ 9.18 to 32.8 µM) | 3.5 to 12.5 µg/mL (≈ 9.18 to 32.8 µM) | 1 to 3.5 µg/mL (≈ 2.62 to 9.18 µM) | 3.5 to 12.5 µg/mL (≈ 9.18 to 32.8 µM) | 3.5 to 12.5 µg/mL (≈ 9.18 to 32.8 µM) | 3.5 to 12.5 µg/mL (≈ 9.18 to 32.8 µM) | < 1 µg/mL | 1 to 3.5 µg/mL (≈ 2.62 to 9.18 µM) | 12.5 to 150 µg/mL (≈ 32.8 to 393 µM) | < 1 µg/mL | < 1 µg/mL | < 1 µg/mL | < 1 µg/mL
2 | CCc1c(-c2ccc3c(c2)cc(CN2CC(O)C2)n3C)[nH]c(=O)c(C(=O)O)c1O [Cpd 187, 5-ethyl-4-hydroxy-6-(2-((3-hydroxyazetidin-1-yl)methyl)-1-methyl-1H-indol-5-yl)-2-oxo-1,2-dihydropyridine-3-carboxylic acid] | < 1 µg/mL | 3.5 to 12.5 µg/mL (≈ 8.81 to 31.5 µM) | < 1 µg/mL | 1 to 3.5 µg/mL (≈ 2.52 to 8.81 µM) | 12.5 to 150 µg/mL (≈ 31.5 to 377 µM) | 3.5 to 12.5 µg/mL (≈ 8.81 to 31.5 µM) | 12.5 to 150 µg/mL (≈ 31.5 to 377 µM) | < 1 µg/mL | 12.5 to 150 µg/mL (≈ 31.5 to 377 µM) | 12.5 to 150 µg/mL (≈ 31.5 to 377 µM) | < 1 µg/mL | 1 to 3.5 µg/mL (≈ 2.52 to 8.81 µM) | 1 to 3.5 µg/mL (≈ 2.52 to 8.81 µM) | < 1 µg/mL
3 | CCc1c(-c2ccc3c(c2)cc(CN2CC(N)C2)n3C)[nH]c(=O)c(C(=O)O)c1O [Cpd 188, 6-(2-((3-aminoazetidin-1-yl)methyl)-1-methyl-1H-indol-5-yl)-5-ethyl-4-hydroxy-2-oxo-1,2-dihydropyridine-3-carboxylic acid] | < 1 µg/mL | 12.5 to 150 µg/mL (≈ 31.5 to 378 µM) | 3.5 to 12.5 µg/mL (≈ 8.83 to 31.5 µM) | 1 to 3.5 µg/mL (≈ 2.52 to 8.83 µM) | 12.5 to 150 µg/mL (≈ 31.5 to 378 µM) | 12.5 to 150 µg/mL (≈ 31.5 to 378 µM) | 12.5 to 150 µg/mL (≈ 31.5 to 378 µM) | < 1 µg/mL | 12.5 to 150 µg/mL (≈ 31.5 to 378 µM) | 12.5 to 150 µg/mL (≈ 31.5 to 378 µM) | 3.5 to 12.5 µg/mL (≈ 8.83 to 31.5 µM) | 12.5 to 150 µg/mL (≈ 31.5 to 378 µM) | 12.5 to 150 µg/mL (≈ 31.5 to 378 µM) | 3.5 to 12.5 µg/mL (≈ 8.83 to 31.5 µM)
4 | CCc1c(-c2ccc3c(c2)cc(CN2CC(N(C)C)C2)n3C)[nH]c(=O)c(C(=O)O)c1O [Cpd 189, 6-(2-((3-(dimethylamino)azetidin-1-yl)methyl)-1-methyl-1H-indol-5-yl)-5-ethyl-4-hydroxy-2-oxo-1,2-dihydropyridine-3-carboxylic acid] | 1 to 3.5 µg/mL (≈ 2.36 to 8.24 µM) | 12.5 to 150 µg/mL (≈ 29.4 to 353 µM) | < 1 µg/mL | 3.5 to 12.5 µg/mL (≈ 8.24 to 29.4 µM) | 12.5 to 150 µg/mL (≈ 29.4 to 353 µM) | 3.5 to 12.5 µg/mL (≈ 8.24 to 29.4 µM) | 3.5 to 12.5 µg/mL (≈ 8.24 to 29.4 µM) | < 1 µg/mL | 12.5 to 150 µg/mL (≈ 29.4 to 353 µM) | 12.5 to 150 µg/mL (≈ 29.4 to 353 µM) | < 1 µg/mL | 1 to 3.5 µg/mL (≈ 2.36 to 8.24 µM) | 1 to 3.5 µg/mL (≈ 2.36 to 8.24 µM) | < 1 µg/mL
5 | CCc1c(-c2ccc3c(c2)cc(CN2CCCCC2)n3C)[nH]c(=O)c(C(=O)O)c1O [Cpd 192, 5-ethyl-4-hydroxy-6-(1-methyl-2-(piperidin-1-ylmethyl)-1H-indol-5-yl)-2-oxo-1,2-dihydropyridine-3-carboxylic acid] | < 1 µg/mL | 12.5 to 150 µg/mL (≈ 30.5 to 366 µM) | < 1 µg/mL | 1 to 3.5 µg/mL (≈ 2.44 to 8.55 µM) | 12.5 to 150 µg/mL (≈ 30.5 to 366 µM) | 3.5 to 12.5 µg/mL (≈ 8.55 to 30.5 µM) | 3.5 to 12.5 µg/mL (≈ 8.55 to 30.5 µM) | < 1 µg/mL | 1 to 3.5 µg/mL (≈ 2.44 to 8.55 µM) | 12.5 to 150 µg/mL (≈ 30.5 to 366 µM) | < 1 µg/mL | 1 to 3.5 µg/mL (≈ 2.44 to 8.55 µM) | 1 to 3.5 µg/mL (≈ 2.44 to 8.55 µM) | < 1 µg/mL
